# In patent US9714244B2, “Substituted pyrido[4,3-d]pyrimidines as Wee-1 inhibitors” (ALMAC DISCOVERY LIMITED, priority 2013, dated 2017):
# Columns and labels:
# Assay type in all cases: biochemical
# Conditions in all cases: 300-350 nM
# CSNK2A1 (CK2 alpha 1) = CSNK2A1 (CK2 alpha 1) (Homo sapiens (Human), UniProt P68400); test: SelectScreen Kinase Profiling: CSNK2A1
# Description: (§1) Table 2 below highlights the selectivity of a representative compound of the invention against a panel of 50 kinases (assessed using the Invitrogen SelectScreen® Kinase Profiling Service).
# CSNK1G2 (CK1 gamma 2) = CSNK1G2 (CK1 gamma 2) (Homo sapiens (Human), UniProt P78368); test: SelectScreen Kinase Profiling: CSNK1G2
# CSNK1G2 (CK1 gamma 2), sequence (P78368 whole entry): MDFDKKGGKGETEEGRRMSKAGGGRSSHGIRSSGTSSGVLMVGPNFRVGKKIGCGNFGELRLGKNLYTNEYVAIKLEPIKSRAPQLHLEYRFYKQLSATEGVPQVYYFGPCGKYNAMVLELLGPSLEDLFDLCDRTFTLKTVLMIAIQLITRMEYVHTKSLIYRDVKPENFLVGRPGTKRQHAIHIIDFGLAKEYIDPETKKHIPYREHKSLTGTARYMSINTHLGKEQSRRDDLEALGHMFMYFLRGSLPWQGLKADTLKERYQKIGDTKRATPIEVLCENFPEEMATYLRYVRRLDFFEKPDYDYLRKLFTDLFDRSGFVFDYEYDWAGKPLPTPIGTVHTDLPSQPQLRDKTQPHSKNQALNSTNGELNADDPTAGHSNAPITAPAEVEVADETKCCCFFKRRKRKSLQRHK
# Description: as §1
# ACVR1B (ALK4) = ACVR1B (ALK4) (Homo sapiens (Human), UniProt P36896); test: SelectScreen Kinase Profiling: ACVR1B
# ACVR1B (ALK4), sequence (P36896 24-505): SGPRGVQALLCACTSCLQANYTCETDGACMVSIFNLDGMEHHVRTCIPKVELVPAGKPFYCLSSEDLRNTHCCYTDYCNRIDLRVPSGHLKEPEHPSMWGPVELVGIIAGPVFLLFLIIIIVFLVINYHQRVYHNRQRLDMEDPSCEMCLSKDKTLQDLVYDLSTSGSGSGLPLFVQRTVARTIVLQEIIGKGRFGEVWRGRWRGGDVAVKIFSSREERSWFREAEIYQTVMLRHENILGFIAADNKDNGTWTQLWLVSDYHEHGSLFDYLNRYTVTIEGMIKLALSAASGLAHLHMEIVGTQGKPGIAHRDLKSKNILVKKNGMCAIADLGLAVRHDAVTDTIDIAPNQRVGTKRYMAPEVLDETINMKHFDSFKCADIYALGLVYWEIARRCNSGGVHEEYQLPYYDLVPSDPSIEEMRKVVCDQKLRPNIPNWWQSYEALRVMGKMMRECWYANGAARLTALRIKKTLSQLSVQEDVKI
# Description: as §1
# MAP4K4 (HGK) = MAP4K4 (HGK) (Homo sapiens (Human), UniProt O95819); test: SelectScreen Kinase Profiling: MAP4K4
# MAP4K4 (HGK), sequence (O95819 whole entry): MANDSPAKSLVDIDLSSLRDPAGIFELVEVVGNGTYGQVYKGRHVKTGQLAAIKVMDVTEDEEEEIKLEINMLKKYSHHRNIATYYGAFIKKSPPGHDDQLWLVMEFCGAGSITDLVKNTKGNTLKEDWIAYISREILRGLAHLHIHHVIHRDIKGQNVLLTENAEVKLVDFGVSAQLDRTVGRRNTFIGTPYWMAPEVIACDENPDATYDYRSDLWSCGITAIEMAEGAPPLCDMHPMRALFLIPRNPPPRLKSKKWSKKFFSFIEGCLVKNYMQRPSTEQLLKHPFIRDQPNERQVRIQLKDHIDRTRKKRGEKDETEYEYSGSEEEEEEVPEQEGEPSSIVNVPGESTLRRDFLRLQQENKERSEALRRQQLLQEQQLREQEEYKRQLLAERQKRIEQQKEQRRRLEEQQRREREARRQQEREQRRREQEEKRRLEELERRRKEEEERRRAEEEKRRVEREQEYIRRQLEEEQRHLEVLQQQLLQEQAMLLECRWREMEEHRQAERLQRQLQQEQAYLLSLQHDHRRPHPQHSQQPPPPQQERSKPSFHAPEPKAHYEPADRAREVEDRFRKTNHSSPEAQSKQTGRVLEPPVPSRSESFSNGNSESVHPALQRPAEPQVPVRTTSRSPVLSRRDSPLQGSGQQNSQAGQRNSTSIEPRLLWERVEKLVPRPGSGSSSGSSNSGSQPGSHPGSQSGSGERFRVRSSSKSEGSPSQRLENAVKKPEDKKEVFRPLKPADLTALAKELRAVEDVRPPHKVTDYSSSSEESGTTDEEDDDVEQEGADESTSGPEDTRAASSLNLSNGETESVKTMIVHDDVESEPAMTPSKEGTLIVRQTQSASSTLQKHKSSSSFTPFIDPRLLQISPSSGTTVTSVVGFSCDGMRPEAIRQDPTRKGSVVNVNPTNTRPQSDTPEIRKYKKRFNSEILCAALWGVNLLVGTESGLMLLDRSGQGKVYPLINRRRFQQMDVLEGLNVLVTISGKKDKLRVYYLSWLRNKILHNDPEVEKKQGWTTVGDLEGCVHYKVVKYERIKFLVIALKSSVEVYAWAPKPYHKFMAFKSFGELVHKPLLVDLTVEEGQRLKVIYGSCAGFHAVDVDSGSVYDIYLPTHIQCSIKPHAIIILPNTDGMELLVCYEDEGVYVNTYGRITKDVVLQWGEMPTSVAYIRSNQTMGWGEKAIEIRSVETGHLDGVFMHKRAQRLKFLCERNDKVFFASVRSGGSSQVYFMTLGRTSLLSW
# Description: as §1
# ABL1 = ABL1 (Homo sapiens (Human), UniProt P00519); test: SelectScreen Kinase Profiling: ABL1
# ABL1, sequence (P00519 whole entry): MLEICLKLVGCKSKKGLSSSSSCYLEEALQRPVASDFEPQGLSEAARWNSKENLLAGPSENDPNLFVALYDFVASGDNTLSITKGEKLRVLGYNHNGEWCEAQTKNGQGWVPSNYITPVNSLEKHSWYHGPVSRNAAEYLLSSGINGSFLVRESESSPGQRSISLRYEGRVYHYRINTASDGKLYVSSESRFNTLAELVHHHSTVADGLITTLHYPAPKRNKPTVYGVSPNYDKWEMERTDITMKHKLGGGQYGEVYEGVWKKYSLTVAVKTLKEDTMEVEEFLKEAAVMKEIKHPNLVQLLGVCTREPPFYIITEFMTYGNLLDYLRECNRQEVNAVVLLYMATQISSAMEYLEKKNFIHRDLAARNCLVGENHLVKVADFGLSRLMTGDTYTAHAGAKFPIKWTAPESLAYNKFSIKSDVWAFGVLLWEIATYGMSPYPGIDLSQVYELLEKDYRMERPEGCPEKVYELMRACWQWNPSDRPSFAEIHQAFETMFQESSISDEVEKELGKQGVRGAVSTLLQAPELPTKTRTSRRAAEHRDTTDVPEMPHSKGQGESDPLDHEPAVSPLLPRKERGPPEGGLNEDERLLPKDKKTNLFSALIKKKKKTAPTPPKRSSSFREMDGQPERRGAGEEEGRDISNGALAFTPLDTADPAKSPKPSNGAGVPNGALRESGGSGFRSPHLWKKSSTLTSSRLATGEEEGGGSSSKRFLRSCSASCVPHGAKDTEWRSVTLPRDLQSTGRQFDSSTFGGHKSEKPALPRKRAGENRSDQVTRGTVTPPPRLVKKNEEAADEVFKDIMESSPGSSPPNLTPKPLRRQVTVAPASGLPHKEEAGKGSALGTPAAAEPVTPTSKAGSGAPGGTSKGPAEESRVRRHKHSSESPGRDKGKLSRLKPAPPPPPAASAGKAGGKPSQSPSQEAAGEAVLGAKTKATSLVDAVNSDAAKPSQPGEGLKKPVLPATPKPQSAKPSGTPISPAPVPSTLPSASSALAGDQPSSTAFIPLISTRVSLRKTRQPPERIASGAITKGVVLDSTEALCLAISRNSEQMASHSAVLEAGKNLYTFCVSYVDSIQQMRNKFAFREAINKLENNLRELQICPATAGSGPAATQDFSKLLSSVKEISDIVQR
# Description: as §1
# ROCK1 = ROCK1 (Homo sapiens (Human), UniProt Q13464); test: SelectScreen Kinase Profiling: ROCK1
# ROCK1, sequence (Q13464 whole entry): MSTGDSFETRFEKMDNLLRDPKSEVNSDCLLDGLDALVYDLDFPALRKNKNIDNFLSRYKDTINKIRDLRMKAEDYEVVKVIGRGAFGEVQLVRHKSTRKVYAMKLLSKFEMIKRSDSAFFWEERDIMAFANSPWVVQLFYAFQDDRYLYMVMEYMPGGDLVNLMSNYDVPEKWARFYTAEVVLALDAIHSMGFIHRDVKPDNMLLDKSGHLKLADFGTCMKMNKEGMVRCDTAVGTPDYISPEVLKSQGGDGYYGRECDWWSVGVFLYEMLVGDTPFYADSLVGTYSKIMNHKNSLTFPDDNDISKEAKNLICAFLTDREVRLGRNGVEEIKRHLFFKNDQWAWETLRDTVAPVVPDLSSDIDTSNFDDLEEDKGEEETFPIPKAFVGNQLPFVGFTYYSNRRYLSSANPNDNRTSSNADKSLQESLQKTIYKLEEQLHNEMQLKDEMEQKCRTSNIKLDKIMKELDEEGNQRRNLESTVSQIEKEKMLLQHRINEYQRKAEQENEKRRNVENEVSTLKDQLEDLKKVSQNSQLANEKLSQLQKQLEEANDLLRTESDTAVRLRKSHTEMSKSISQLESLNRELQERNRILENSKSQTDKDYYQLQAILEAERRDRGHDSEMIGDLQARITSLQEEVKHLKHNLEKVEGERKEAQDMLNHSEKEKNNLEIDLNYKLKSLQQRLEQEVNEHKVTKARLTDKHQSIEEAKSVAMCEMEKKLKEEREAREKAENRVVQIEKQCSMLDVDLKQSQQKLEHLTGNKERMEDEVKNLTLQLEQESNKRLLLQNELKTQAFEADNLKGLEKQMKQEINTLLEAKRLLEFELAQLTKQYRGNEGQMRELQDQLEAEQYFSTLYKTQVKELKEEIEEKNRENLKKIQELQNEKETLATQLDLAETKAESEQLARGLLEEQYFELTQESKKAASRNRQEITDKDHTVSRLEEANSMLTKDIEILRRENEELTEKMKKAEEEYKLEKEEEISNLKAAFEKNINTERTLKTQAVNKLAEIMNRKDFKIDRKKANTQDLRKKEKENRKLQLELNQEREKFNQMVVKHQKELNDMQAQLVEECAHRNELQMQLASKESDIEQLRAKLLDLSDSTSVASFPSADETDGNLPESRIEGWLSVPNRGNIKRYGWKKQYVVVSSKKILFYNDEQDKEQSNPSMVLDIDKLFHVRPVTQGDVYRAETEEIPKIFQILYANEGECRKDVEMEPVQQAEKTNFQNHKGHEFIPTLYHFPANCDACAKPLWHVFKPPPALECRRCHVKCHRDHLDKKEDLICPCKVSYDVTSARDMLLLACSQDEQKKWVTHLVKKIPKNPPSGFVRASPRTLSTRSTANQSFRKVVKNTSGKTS
# Description: as §1
# CSNK2A1 (CK2 alpha 1), sequence (P68400 whole entry): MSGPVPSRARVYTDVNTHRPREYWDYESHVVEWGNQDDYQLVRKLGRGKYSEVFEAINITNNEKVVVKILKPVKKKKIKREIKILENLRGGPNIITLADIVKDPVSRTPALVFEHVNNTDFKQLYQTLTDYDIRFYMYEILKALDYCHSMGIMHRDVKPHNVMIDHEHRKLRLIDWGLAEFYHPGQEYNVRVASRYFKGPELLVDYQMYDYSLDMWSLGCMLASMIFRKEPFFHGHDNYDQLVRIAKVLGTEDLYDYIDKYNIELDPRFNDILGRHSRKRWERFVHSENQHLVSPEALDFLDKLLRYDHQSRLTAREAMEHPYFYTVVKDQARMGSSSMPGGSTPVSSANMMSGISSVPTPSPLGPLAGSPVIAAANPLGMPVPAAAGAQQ
smiles,measurement,setting,value
"O=c1c2cnc(Nc3ccc(N4CCNCC4)cc3)nc2ccn1-c1c(Cl)cccc1Cl [Example 1, 6-(2,6-Dichlorophenyl)-2-((4-(piperazin-1-yl)phenyl)amino)pyrido[4,3-d]pyrimidin-5(6H)-one]",Inhibition CSNK2A1 (CK2 alpha 1),CSNK2A1 (CK2 alpha 1),− (Inhibition <75% @ 300-350 nM)
same,Inhibition CSNK1G2 (CK1 gamma 2),CSNK1G2 (CK1 gamma 2),− (Inhibition <75% @ 300-350 nM)
same,Inhibition ACVR1B (ALK4),ACVR1B (ALK4),− (Inhibition <75% @ 300-350 nM)
same,Inhibition MAP4K4 (HGK),MAP4K4 (HGK),− (Inhibition <75% @ 300-350 nM)
same,Inhibition ABL1,ABL1,+ (Inhibition >75% at 300-350 nM)
same,Inhibition ROCK1,ROCK1,− (Inhibition <75% @ 300-350 nM)
